From patent US5639735A, “Antitumor antibiotic compounds: hayumicins and analogs thereof” (Bristol-Myers Squibb Company, priority 1994, dated 1997)
Converted amounts (≈) assume the structure as drawn.

Legend:
Bacillus subtilis = assay: Agar dilution MIC; format: cell-based; settings: A No. 9506A, 37° C., 18 hours
Description: (§1) The following methodology was used to determine the minimum inhibitory concentration (hereinafter referred to as the "MIC") of the compounds of this invention. The test organisms were grown in 20 mL of Antibiotic Assay Broth (Difco) by inoculating the broth (in tubes) with a loopful of the organism from a BHI (Difco) agar slant. The inoculated tubes were incubated at 37° C. for 18 to 24 hours. These cultures were assumed to contain 10^9 colony forming units (CFU) per mL. The cultures were diluted 1:100 to give a final inoculum level of 10^7 CFU per mL; dilutions were made with Yeast Beef Broth (Difco). The antibiotics Hayumicin A and Hayumicin B of the present invention were dissolved in suitable diluents at a concentration of 1000 μg/mL. Two-fold dilutions were made in Yeast Beef Broth (Difco), resulting in a range from 1000 μg/mL to 0.5 μg/mL. A 1.5 mL portion of each dilution was placed into individual petri dishes to which 13.5 mL of K-10 agar was added. The composition of K-10 agar is:
(§2) The final drug concentration in agar of Hayumicin A or Hayumicin B ranged from […] to 0.05 μg/mL. Organism growth control plates containing agar only were prepared and inoculated before and after the test plates. The organisms were applied to the surface of each plate so that each contained a final inoculum of 10^5 CFU. The plates were incubated at 37° C. for 18 hours and the MICs determined. The MIC is the lowest concentration of compound inhibiting growth of the organism.

Escherichia coli = assay: Agar dilution MIC; format: cell-based; settings: 18 h
Description: as §1, §2

Klebsiella oxytoca = assay: Agar dilution MIC; format: cell-based; settings: A No. 203454, 37° C., 18 hours
Description: as §1, §2

Klebsiella pneumoniae = assay: Agar dilution MIC; format: cell-based; settings: A No. 9664, 37° C., 18 hours
Description: as §1, §2

Micrococcus luteus = assay: Agar dilution MIC; format: cell-based; settings: A No. 9852, 37° C., 18 hours
Description: as §1, §2

Proteus mirabilis = assay: Agar dilution MIC; format: cell-based; settings: A No. 9900, 37° C., 18 hours
Description: as §1, §2

Pseudomanas aeruginosa = assay: Agar dilution MIC; format: cell-based; settings: A No. 21508, 37° C., 18 hours
Description: as §1, §2

Staphylococcus aureus = assay: Agar dilution MIC; format: cell-based; settings: 18 h
Description: as §1, §2

Streptococcus agalactiae = assay: Agar dilution MIC; format: cell-based; settings: A No. 22567, 37° C., 18 hours
Description: as §1, §2

Streptococcus pneumoniae = assay: Agar dilution MIC; format: cell-based; settings: A No. 9585, 37° C., 18 hours
Description: as §1, §2

Streptococcus pyogenes = assay: Agar dilution MIC; format: cell-based; settings: A No. 9604, 37° C., 18 hours
Description: as §1, §2

[1] = system: bacteria (especially gram positive bacteria); assay: Antibiotic activity (general statement); format: cell-based; settings: inhibiting the growth of bacteria
tumors = assay: Antitumor activity (general statement); settings: no test described

Question: For `CO[C@@H]1[C@@H](O)[C@@H](O[C@H]2[C@H](Oc3cccc4c(=O)c5c(O)c(=O)c6ccc(C)c7c(=O)oc(c-5c67)c34)O[C@H](C)[C@H](O)[C@@H]2O)O[C@H](C)[C@@H]1OC` [Hayumicin A, 10-[[6-deoxy-2-O-(6-deoxy-3,4-di-O-methyl-α-D-galactopyranosyl)-β-D -galactopyranosyl]oxy]-5-hydroxy-1-methyl-4H -benzo[h]naphtho[8,1,2-cde][1]benzopyran-4,6,12-trione], which MIC (Bacillus subtilis) is on record?
Answer: Its MIC is 32 µg/mL (≈ 48 µM).

Question: And the MIC (Escherichia coli; A No. 20697, 37° C.)?
Answer: The MIC was greater than 128 µg/mL.

Question: What about the MIC (Escherichia coli; A No. 22292, 37° C.) of the same molecule?
Answer: Its MIC is 16 µg/mL (≈ 24 µM).

Question: And the MIC (Escherichia coli; A No. 28290, 37° C.)?
Answer: The MIC was greater than 128 µg/mL.

Question: And the MIC (Klebsiella oxytoca)?
Answer: The MIC was greater than 128 µg/mL.

Question: What about the MIC (Klebsiella pneumoniae) of the same molecule?
Answer: Its MIC is greater than 128 µg/mL.

Question: What about the MIC (Micrococcus luteus) of the same molecule?
Answer: The MIC was 1 µg/mL (≈ 1.5 µM).

Question: And the MIC (Proteus mirabilis)?
Answer: Its MIC is greater than 128 µg/mL.

Question: And the MIC (Pseudomanas aeruginosa)?
Answer: The MIC was greater than 128 µg/mL.

Question: And the MIC (Staphylococcus aureus; A No. 9537, 37° C.)?
Answer: Its MIC is 64 µg/mL (≈ 96 µM).

Question: What about the MIC (Staphylococcus aureus; A No. 9606, 37° C.) of the same molecule?
Answer: The MIC was 128 µg/mL (≈ 192 µM).

Question: What about the MIC (Staphylococcus aureus; A No. 24227, 37° C.) of the same molecule?
Answer: Its MIC is 128 µg/mL (≈ 192 µM).

Question: And the MIC (Streptococcus agalactiae)?
Answer: The MIC was 8 µg/mL (≈ 12 µM).

Question: What about the MIC (Streptococcus pneumoniae) of the same molecule?
Answer: The MIC was 16 µg/mL (≈ 24 µM).

Question: What about the MIC (Streptococcus pyogenes) of the same molecule?
Answer: Its MIC is 8 µg/mL (≈ 12 µM).

Question: And the antibiotic activity [1]?
Answer: The antibiotic activity was “possess antibiotic activity”.

Question: What about the antitumor activity (tumors) of the same molecule?
Answer: Its antitumor activity is “antitumor activity”.

Question: And the solubility in chloroform (Solubility)?
Answer: Its solubility in chloroform is “slightly soluble”.

Question: What about the solubility in dimethylsulfoxide (Solubility) of the same molecule?
Answer: Its solubility in dimethylsulfoxide is “readily soluble”.

Question: What about the solubility in methanol (Solubility) of the same molecule?
Answer: Its solubility in methanol is “slightly soluble”.

Question: And the solubility in n-hexane (Solubility)?
Answer: Its solubility in n-hexane is “insoluble”.

Question: What about the solubility in pyridine (Solubility) of the same molecule?
Answer: The solubility in pyridine was “readily soluble”.

Question: And the solubility in water (Solubility)?
Answer: The solubility in water was “insoluble”.

Question: For `CO[C@@H]1[C@@H](O)[C@@H](O[C@H]2[C@H](Oc3cccc4c(=O)c5c(N)c(=O)c6ccc(C)c7c(=O)oc(c-5c67)c34)O[C@H](C)[C@H](O)[C@@H]2O)O[C@H](C)[C@@H]1OC` [Hayumicin B, 5-amino-10-[[6-deoxy-2-O -(6-deoxy-3,4-di-O-methyl-α-D-galactopyranosyl)-β-D -galactopyranosyl]oxy]-1-methyl-4H -benzo[h]naphtho[8,1,2-cde][1]benzopyran-4,6,12-trione], which MIC (Bacillus subtilis) is on record?
Answer: The MIC was 4 µg/mL (≈ 6.01 µM).

Question: What about the MIC (Escherichia coli; A No. 20697, 37° C.) of the same molecule?
Answer: Its MIC is greater than 128 µg/mL.

Question: What about the MIC (Escherichia coli; A No. 22292, 37° C.) of the same molecule?
Answer: The MIC was 128 µg/mL (≈ 192 µM).

Question: And the MIC (Escherichia coli; A No. 28290, 37° C.)?
Answer: Its MIC is greater than 128 µg/mL.

Question: What about the MIC (Klebsiella oxytoca) of the same molecule?
Answer: Its MIC is greater than 128 µg/mL.

Question: What about the MIC (Klebsiella pneumoniae) of the same molecule?
Answer: The MIC was greater than 128 µg/mL.

Question: What about the MIC (Micrococcus luteus) of the same molecule?
Answer: Its MIC is 1 µg/mL (≈ 1.5 µM).

Question: What about the MIC (Proteus mirabilis) of the same molecule?
Answer: Its MIC is greater than 128 µg/mL.

Question: And the MIC (Pseudomanas aeruginosa)?
Answer: The MIC was greater than 128 µg/mL.

Question: And the MIC (Staphylococcus aureus; A No. 9537, 37° C.)?
Answer: The MIC was 64 µg/mL (≈ 96.1 µM).

Question: What about the MIC (Staphylococcus aureus; A No. 9606, 37° C.) of the same molecule?
Answer: The MIC was 128 µg/mL (≈ 192 µM).

Question: What about the MIC (Staphylococcus aureus; A No. 24227, 37° C.) of the same molecule?
Answer: Its MIC is 128 µg/mL (≈ 192 µM).

Question: And the MIC (Streptococcus agalactiae)?
Answer: The MIC was 8 µg/mL (≈ 12 µM).

Question: And the MIC (Streptococcus pneumoniae)?
Answer: The MIC was 8 µg/mL (≈ 12 µM).

Question: And the MIC (Streptococcus pyogenes)?
Answer: Its MIC is 8 µg/mL (≈ 12 µM).

Question: And the antibiotic activity [1]?
Answer: Its antibiotic activity is “possess antibiotic activity”.

Question: And the antitumor activity (tumors)?
Answer: Its antitumor activity is “antitumor activity”.

Question: And the solubility in chloroform (Solubility)?
Answer: The solubility in chloroform was “slightly soluble”.

Question: And the solubility in dimethylsulfoxide (Solubility)?
Answer: Its solubility in dimethylsulfoxide is “readily soluble”.

Question: And the solubility in methanol (Solubility)?
Answer: The solubility in methanol was “slightly soluble”.

Question: What about the solubility in n-hexane (Solubility) of the same molecule?
Answer: Its solubility in n-hexane is “insoluble”.

Question: What about the solubility in pyridine (Solubility) of the same molecule?
Answer: Its solubility in pyridine is “readily soluble”.

Question: What about the solubility in water (Solubility) of the same molecule?
Answer: Its solubility in water is “insoluble”.

Question: Which antibiotic activity [1] does the source give for `CO[C@@H]1[C@H](O)[C@@H](O)[C@@H](O[C@H]2[C@H](Oc3cccc4c(=O)c5c(N)c(=O)c6ccc(C)c7c(=O)oc(c-5c67)c34)O[C@H](C)[C@H](O)[C@@H]2O)O[C@@H]1C` [Hayumicin C1, 5-amino-10-[[6-deoxy-2-O -(6-deoxy-4-O-methyl-α-D-galactopyranosyl)-β-D -galactopyranosyl]oxy]-1-methyl-4H -benzo[h]naphtho[8,1,2-cde][1]benzopyran-4,6,12-trione] here?
Answer: Its antibiotic activity is “possess antibiotic activity”.

Question: What about the antitumor activity (tumors) of the same molecule?
Answer: The antitumor activity was “antitumor activity”.

Question: What about the solubility in chloroform (Solubility) of the same molecule?
Answer: The solubility in chloroform was “slightly soluble”.

Question: And the solubility in dimethylsulfoxide (Solubility)?
Answer: The solubility in dimethylsulfoxide was “soluble”.

Question: What about the solubility in ether (Solubility) of the same molecule?
Answer: The solubility in ether was “practically insoluble”.

Question: What about the solubility in methanol (Solubility) of the same molecule?
Answer: Its solubility in methanol is “slightly soluble”.

Question: What about the solubility in n-hexane (Solubility) of the same molecule?
Answer: The solubility in n-hexane was “practically insoluble”.

Question: And the solubility in pyridine (Solubility)?
Answer: Its solubility in pyridine is “soluble”.

Question: And the solubility in water (Solubility)?
Answer: The solubility in water was “practically insoluble”.

Question: Which antibiotic activity [1] does the source give for `CO[C@H]1[C@@H](O)[C@@H](C)O[C@H](O[C@H]2[C@H](Oc3cccc4c(=O)c5c(N)c(=O)c6ccc(C)c7c(=O)oc(c-5c67)c34)O[C@H](C)[C@H](O)[C@@H]2O)[C@@H]1O` [Hayumicin C2, B-amino-10-[[6-deoxy-2-O -(6-deoxy-3-O-methyl-α-D-galactopyranosyl)-β-D -galactopyranosyl]oxy]-1-methyl-4H -benzo[h]naphtho[8,1,2-cde][1]benzopyran-4,6,12-trione] here?
Answer: Its antibiotic activity is “possess antibiotic activity”.

Question: What about the antitumor activity (tumors) of the same molecule?
Answer: The antitumor activity was “antitumor activity”.

Question: And the solubility in chloroform (Solubility)?
Answer: Its solubility in chloroform is “slightly soluble”.

Question: And the solubility in dimethylsulfoxide (Solubility)?
Answer: Its solubility in dimethylsulfoxide is “soluble”.

Question: What about the solubility in ether (Solubility) of the same molecule?
Answer: The solubility in ether was “practically insoluble”.

Question: What about the solubility in methanol (Solubility) of the same molecule?
Answer: The solubility in methanol was “slightly soluble”.

Question: What about the solubility in n-hexane (Solubility) of the same molecule?
Answer: The solubility in n-hexane was “practically insoluble”.

Question: And the solubility in pyridine (Solubility)?
Answer: The solubility in pyridine was “soluble”.

Question: And the solubility in water (Solubility)?
Answer: Its solubility in water is “practically insoluble”.

Question: What does the source list for `Cc1ccc2c(=O)c(N)c3c(=O)c4cccc(O[C@@H]5O[C@H](C)[C@H](O)[C@H](O)[C@H]5O[C@H]5O[C@H](C)[C@H](O)[C@H](O)[C@H]5O)c4c4oc(=O)c1c2c4-3` [Hayumicin D, 5-amino-10-[[6-deoxy-2-O -(6-deoxy-α-D-galactopyranosyl)-β-D -galactopyranosyl]oxy]-1-methyl-4H -benzo[h]naphtho[8,1,2-cde][1]benzopyran-4,6,12-trione]?
Answer: antibiotic activity [1]: possess antibiotic activity; antitumor activity (tumors): antitumor activity; solubility in chloroform (Solubility): slightly soluble; solubility in dimethylsulfoxide (Solubility): soluble; solubility in ether (Solubility): practically insoluble; solubility in methanol (Solubility): slightly soluble; solubility in n-hexane (Solubility): practically insoluble; solubility in pyridine (Solubility): soluble; solubility in water (Solubility): practically insoluble
